Experimental data taken from ChEMBL document CHEMBL2073790, “TP-search Transporter Database” (Jpn Pharmacol Ther, 1998).

Tests used:
[1] = molecular target: Multidrug resistance protein 1a (Rattus norvegicus) (UniProt Q6PSM0); assay: (§1) TP_TRANSPORTER: Northern blot in vivo Wistar rat; assay type: functional, organism-based
[2] = molecular target: T1, Solute carrier organic anion transporter family member 1A1 (Rattus norvegicus, UniProt P46720); assay: as §1; assay type: functional, organism-based
T1 sequence (P46720 whole entry): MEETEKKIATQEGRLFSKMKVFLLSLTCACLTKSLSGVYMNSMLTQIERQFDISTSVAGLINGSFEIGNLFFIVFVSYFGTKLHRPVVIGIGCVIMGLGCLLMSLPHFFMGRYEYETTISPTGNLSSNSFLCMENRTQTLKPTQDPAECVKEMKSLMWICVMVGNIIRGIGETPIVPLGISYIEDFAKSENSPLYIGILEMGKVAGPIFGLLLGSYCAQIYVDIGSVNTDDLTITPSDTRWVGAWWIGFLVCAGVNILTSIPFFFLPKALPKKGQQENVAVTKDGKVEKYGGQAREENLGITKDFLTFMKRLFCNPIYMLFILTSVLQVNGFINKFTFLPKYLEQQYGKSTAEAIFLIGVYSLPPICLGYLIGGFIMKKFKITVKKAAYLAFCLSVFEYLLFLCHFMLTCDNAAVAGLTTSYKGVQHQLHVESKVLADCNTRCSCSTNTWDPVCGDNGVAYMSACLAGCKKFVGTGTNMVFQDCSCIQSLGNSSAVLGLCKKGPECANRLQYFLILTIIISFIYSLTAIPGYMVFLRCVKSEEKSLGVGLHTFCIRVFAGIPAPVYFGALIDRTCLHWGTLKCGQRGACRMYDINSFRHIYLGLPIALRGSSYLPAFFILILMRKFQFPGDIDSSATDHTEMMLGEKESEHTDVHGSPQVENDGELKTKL

Sequence of Multidrug resistance protein 1a (Rattus norvegicus) (Q6PSM0 as listed by the source): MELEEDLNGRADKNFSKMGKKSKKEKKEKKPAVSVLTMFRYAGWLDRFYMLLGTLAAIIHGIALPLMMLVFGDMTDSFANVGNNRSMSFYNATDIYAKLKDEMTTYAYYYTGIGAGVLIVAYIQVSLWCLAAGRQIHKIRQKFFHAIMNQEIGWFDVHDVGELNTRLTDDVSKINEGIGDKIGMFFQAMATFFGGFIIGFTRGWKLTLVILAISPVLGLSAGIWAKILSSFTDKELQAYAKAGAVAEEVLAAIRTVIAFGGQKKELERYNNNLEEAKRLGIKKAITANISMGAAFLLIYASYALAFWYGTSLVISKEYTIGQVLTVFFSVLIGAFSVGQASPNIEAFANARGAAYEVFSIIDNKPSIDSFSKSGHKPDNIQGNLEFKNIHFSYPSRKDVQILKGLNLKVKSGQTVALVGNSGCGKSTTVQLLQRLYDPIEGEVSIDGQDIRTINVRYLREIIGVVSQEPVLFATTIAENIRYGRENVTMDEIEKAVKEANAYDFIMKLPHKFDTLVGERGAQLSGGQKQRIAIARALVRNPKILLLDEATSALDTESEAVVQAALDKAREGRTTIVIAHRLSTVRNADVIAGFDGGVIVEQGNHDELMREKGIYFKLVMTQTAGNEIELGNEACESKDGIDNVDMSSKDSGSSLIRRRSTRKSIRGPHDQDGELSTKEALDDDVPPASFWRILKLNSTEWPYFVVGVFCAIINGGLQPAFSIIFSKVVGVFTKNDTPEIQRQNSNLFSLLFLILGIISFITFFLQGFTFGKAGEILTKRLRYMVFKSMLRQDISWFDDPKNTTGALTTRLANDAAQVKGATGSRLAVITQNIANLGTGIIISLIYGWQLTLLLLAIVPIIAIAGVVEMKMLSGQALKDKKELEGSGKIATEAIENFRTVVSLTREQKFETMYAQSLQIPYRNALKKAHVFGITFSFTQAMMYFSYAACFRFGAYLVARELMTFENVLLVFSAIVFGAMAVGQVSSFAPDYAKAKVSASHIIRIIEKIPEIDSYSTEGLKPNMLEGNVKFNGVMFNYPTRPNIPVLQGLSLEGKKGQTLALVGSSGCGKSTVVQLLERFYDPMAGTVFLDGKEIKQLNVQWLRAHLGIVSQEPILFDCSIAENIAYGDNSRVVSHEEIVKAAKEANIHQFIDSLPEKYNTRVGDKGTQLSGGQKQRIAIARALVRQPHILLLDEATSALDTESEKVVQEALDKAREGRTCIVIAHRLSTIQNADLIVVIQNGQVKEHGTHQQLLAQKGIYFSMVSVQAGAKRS

## O=C=Nc1cccc2ccccc12 [alpha-naphthylisocyanate]
[1]
  Activity: inducer [+]
[2]
  Activity: inducer [+]
